Data on eleven compounds can be found in ChEMBL document CHEMBL1201862, “PubChem BioAssay data set” (2004).

Each structure is given as a SMILES string.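 The compound was tested at five concentrations on cells cultured in 96-well plates, with a 48-hour exposure period. GI50 is the concentration that inhibits growth by half.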 Calls of active or inactive are those of the source. Cut-off read from the data, not from the text of the source: active = GI50 up to about 1.1 µM and inactive = higher.

What all share (assay): NCI-60 cell line screen, 48 h
For assay [1], the system named is OVCAR-3.
The subject of assay [2] is MCF7.
The test system of assay [3] is Hs-578T.
The subject of assay [4] is HOP-92.
In assay [5] the test system is HT-29.
For assay [6], the system named is 786-0.
The subject of assay [7] is UACC-62.
Assay [8] concerns MDA-N.
Assay [9] concerns K562.
Assay [10] has as its system MDA-MB-231.
The subject of assay [11] is U-251.
For assay [12], the system named is Malme-3M.
Assay [13] relates to RPMI-8226.
Assay [14] concerns HCT-15.
For assay [15], the system named is HCT-116.
The subject of assay [16] is OVCAR-4.
The test system of assay [17] is HL-60.
Assay [18] relates to SK-MEL-2.

For the compound `C=CCn1c(=O)ccn(/C(=C/C(=O)OCC)C(=O)OCC)c1=O`, the GI50 was 5.66 µM (inactive) in [1]; 3.94 µM (inactive) in [2]; 22.5 µM (inactive) in assay [3]; 2.36 µM (inactive) in assay [4]; 10.4 µM (inactive) in assay [5]; 3.48 µM (inactive) in [6]. Moreover, the GI50 was 15.7 µM (inactive) in assay [7]; 15.5 µM (inactive) in assay [8]; 3.08 µM (inactive) in assay [9]; 9.82 µM (inactive) in [10]; 14.4 µM (inactive) in assay [11]; 11 µM (inactive) in assay [12]. In addition, the GI50 was 7.94 µM (inactive) in assay [13]; 1.83 µM in assay [14]; 7.1 µM (inactive) in assay [15]; 12.4 µM (inactive) in assay [16]; 1.76 µM (inactive) in assay [17]; 15.7 µM (inactive) in assay [18].
For `CCc1cc(Cc2cc(CC)c(NC(=O)C(=O)CC(=O)c3sc(-c4cccnc4)nc3C)c(CC)c2)cc(CC)c1NC(=O)C(=O)CC(=O)c1sc(-c2cccnc2)nc1C`, the GI50 in assay [1], in assay [2], in [3], in assay [4], in [5] and in assay [6] was > 100 µM (inactive) throughout. Further, the GI50 in assay [7], in assay [8], in [9], in assay [10], in [11] and in [12] was > 100 µM (inactive) in each case. Further, the GI50 is > 100 µM (inactive) in [13]; over 100 µM in [14]; > 100 µM (inactive) in assay [15]; > 100 µM (inactive) in assay [16]; > 100 µM (inactive) in [17]; > 100 µM (inactive) in [18].
Consider `N#CC1CCCC2SC(F)(F)C(F)(F)C12` (stereo not drawn), for which the GI50 in assay [1] is > 100 µM (inactive); in assay [2], > 100 µM (inactive); in [3], > 100 µM (inactive); in assay [4] it was > 100 µM (inactive); in assay [5] it was > 88.5 µM (inactive); in assay [6] it was > 100 µM (inactive). The GI50 in assay [7] is > 100 µM (inactive); in assay [8], > 100 µM (inactive); in [9], 30.5 µM (inactive); in assay [10] it was > 100 µM (inactive); in [11], > 100 µM (inactive); in assay [12], > 100 µM (inactive). Further, the GI50 in assay [13] is > 46.8 µM (inactive); in [14] it was over 100 µM; in assay [15], > 100 µM (inactive); in assay [16], > 100 µM (inactive); in [17] it was 19.7 µM (inactive); in assay [18], > 100 µM (inactive).
For `O=C(CC(O)(C(F)(F)F)C(F)(F)F)C(c1ccccc1)C(O)(C(F)(F)F)C(F)(F)F` (stereo not drawn), the GI50 in assay [1] is 11.5 µM (inactive); in assay [2], 45.7 µM (inactive); in [3] it was 4.15 µM (inactive); in [4], 3.72 µM (inactive); in [5], 15.2 µM (inactive); in assay [6], 31.3 µM (inactive). The GI50 is 20.5 µM (inactive) in assay [7]; 78.2 µM (inactive) in assay [8]; 7.6 µM (inactive) in assay [9]; > 100 µM (inactive) in assay [10]; 5.45 µM (inactive) in assay [11]; 50.4 µM (inactive) in assay [12]. The GI50 in [13] was 5.33 µM (inactive); in assay [14] it was 9.53 µM; in assay [15], 16.4 µM (inactive); in assay [16], > 100 µM (inactive); in [17], 9.71 µM (inactive); in [18] it was 35.1 µM (inactive).
Turning to `O=C(Nc1ccccc1)c1cc(S(=O)(=O)NC2=Nc3ccc(Cl)cc3C(c3ccccc3)N2)c(SSc2cc(Cl)c(C(=O)Nc3ccccc3)cc2S(=O)(=O)NC2=Nc3ccc(Cl)cc3C(c3ccccc3)N2)cc1Cl` (stereo not drawn), the GI50 in assay [1], in assay [2], in assay [3], in assay [4], in assay [5] and in assay [6] was > 100 µM (inactive) in each case. Further, the GI50 was > 89.9 µM (inactive) in [7]; > 100 µM (inactive) in assay [8]; 38 µM (inactive) in assay [9]; > 45.3 µM (inactive) in [10]; > 100 µM (inactive) in [11]; > 100 µM (inactive) in assay [12]. Moreover, the GI50 in [13] was 55.3 µM (inactive); in assay [14], over 100 µM; in assay [15], > 100 µM (inactive); in assay [16], > 100 µM (inactive); in [17], > 36.1 µM (inactive); in [18], > 100 µM (inactive).
Consider `COc1ccc(N/N=C2\CCOc3ccc(C)cc3C2=O)cc1`, for which the GI50 is 43.2 µM (inactive) in assay [1]; 14.4 µM (inactive) in assay [2]; 25.1 µM (inactive) in assay [3]; 18.1 µM (inactive) in assay [4]; 7.8 µM (inactive) in assay [5]; 17.4 µM (inactive) in assay [6]. Besides, the GI50 in assay [7] was 6.81 µM (inactive); in assay [8], 3.98 µM (inactive); in assay [9], 4.43 µM (inactive); in assay [10], 14.4 µM (inactive); in [11], 20.9 µM (inactive); in assay [12], 11.1 µM (inactive). Besides, the GI50 is 25.5 µM (inactive) in assay [13]; 5.52 µM in assay [14]; 19.5 µM (inactive) in assay [15]; 14.5 µM (inactive) in [16]; 11.9 µM (inactive) in [17]; 16.8 µM (inactive) in assay [18].
With `Cc1ccc(-c2nc(N/N=C/c3ccc(O)cc3)c3ccccc3n2)cc1`, the GI50 in [1] is 4.29 µM (inactive); in assay [2], 10.2 µM (inactive); in assay [3], 35.7 µM (inactive); in [4], 32.4 µM (inactive); in [5], 27.7 µM (inactive); in assay [6], 22.8 µM (inactive). Also, the GI50 in [7] is 12.3 µM (inactive); in assay [8], 7.87 µM (inactive); in assay [9] it was 22.8 µM (inactive); in [10] it was 19.4 µM (inactive); in [11] it was 19.8 µM (inactive); in assay [12] it was 13.8 µM (inactive). The GI50 was 40.7 µM (inactive) in assay [13]; 16.4 µM in assay [14]; 14.1 µM (inactive) in assay [15]; 1.55 µM (inactive) in assay [16]; 17.2 µM (inactive) in [17]; 15.8 µM (inactive) in assay [18].
Regarding `N#Cc1nc(C#N)n(S(=O)(=O)c2ccccc2)c1NS(=O)(=O)c1ccccc1`, the GI50 in assay [1], in assay [2], in assay [3], in assay [4], in assay [5] and in assay [6] was > 100 µM (inactive) throughout. The GI50 in [7], in assay [8], in assay [9], in assay [10], in assay [11] and in [12] was > 100 µM (inactive) in each case. For the same compound, the GI50 in [13] was > 100 µM (inactive); in assay [14], over 100 µM; in assay [15], > 100 µM (inactive); in assay [16] it was > 100 µM (inactive); in assay [17], > 100 µM (inactive); in assay [18] it was > 31.6 µM (inactive).
Turning to `Cc1cccc(/C=N/NC(=S)NC2CCCCC2)n1`, the GI50 was 3.7 µM (inactive) in [1]; 11.4 µM (inactive) in assay [2]; 31.1 µM (inactive) in assay [3]; 10.1 µM (inactive) in assay [4]; 3.27 µM (inactive) in assay [5]; 20 µM (inactive) in assay [6]. Further, the GI50 in assay [7] was 21.3 µM (inactive); in assay [8] it was 28.4 µM (inactive); in assay [9], 4.61 µM (inactive); in [10] it was 35.1 µM (inactive); in [11], 20.5 µM (inactive); in assay [12], 16.2 µM (inactive). Besides, the GI50 in [13] was 6.92 µM (inactive); in assay [14], 5.26 µM; in assay [15] it was 4.02 µM (inactive); in assay [16] it was 17.3 µM (inactive); in assay [17], 2.86 µM (inactive); in assay [18] it was 24.1 µM (inactive).
Consider `CC1=C(C)CC2C(=O)N(c3cc(C(C)(C)C)ccc3C(C)(C)C)C(=O)C2C1` (stereo not drawn), for which the GI50 was 66.2 µM (inactive) in [1]; 0.776 µM (active) in assay [2]; 5.82 µM (inactive) in [3]; 26.2 µM (inactive) in assay [4]; > 100 µM (inactive) in [5]; 64.9 µM (inactive) in [6]. Further, the GI50 in assay [7] is 14.5 µM (inactive); in [8], > 100 µM (inactive); in [9], > 100 µM (inactive); in assay [10], > 100 µM (inactive); in [11] it was 47.1 µM (inactive); in assay [12], 4.55 µM (inactive). The GI50 in assay [13] is > 100 µM (inactive); in [14], over 100 µM; in assay [15], 50 µM (inactive); in [16] it was > 100 µM (inactive); in [17], > 100 µM (inactive); in assay [18], > 100 µM (inactive).
Turning to `CCOc1ccc(C(c2c(O)c3ccccc3oc2=O)c2c(O)c3ccccc3oc2=O)cc1`, the GI50 is 43.8 µM (inactive) in assay [1]; 46.6 µM (inactive) in assay [2]; 37.6 µM (inactive) in [3]; 23.6 µM (inactive) in assay [4]; 40.9 µM (inactive) in [5]; 78.2 µM (inactive) in assay [6]. Further, the GI50 was 38.7 µM (inactive) in assay [7]; 60 µM (inactive) in [8]; 53.8 µM (inactive) in assay [9]; 58.5 µM (inactive) in assay [10]; 32.7 µM (inactive) in [11]; 48.8 µM (inactive) in assay [12]. For the same compound, the GI50 in [13] is 32.2 µM (inactive); in [14], 65.5 µM; in assay [15] it was 48.4 µM (inactive); in assay [16], > 100 µM (inactive); in assay [17], 19.9 µM (inactive); in assay [18], 24.1 µM (inactive).
